System: MOLT4 proteome
Assay: Multiplexed quantitative mass spectrometry-based proteomics in MOLT4 cells
Assay type: cell-based, human
Details: 100 nM
Protocol: MOLT4 cells were treated with DMSO or 100 nM of compound 13 for 2 or 4 hours in biological triplicates and lenalidomide in biological duplicates for 4 hours and cells were harvested by centrifugation. Lysis buffer (8 M Urea, 50 mM NaCl, 50 mM 4-(2hydroxyethyl)-1-piperazineethanesulfonic acid (EPPS) pH 8.5, Protease and Phosphatase inhibitors from Roche) was added to the cell pellets and homogenized by 20 passes through a 21 gauge (1.25 in. long) needle to achieve a cell lysate with a protein concentration between 1-4 mg mL^−1. A micro-BCA assay (Pierce™) was used to determine the final protein concentration of protein in the cell lysate. 200 μg of protein for each sample were reduced and alkylated as previously described in Donovan et al., Elife 7:e38430 (2018).
Proteins were precipitated using methanol/chloroform. In brief, four volumes of methanol were added to the cell lysate, followed by one volume of chloroform, and finally three volumes of water. The mixture was vortexed and centrifuged to separate the chloroform phase from the aqueous phase. The precipitated protein was washed with three volumes of methanol, centrifuged and the resulting washed precipitated protein was allowed to air dry. Precipitated protein was resuspended in 4 M Urea, 50 mM HEPES pH 7.4, followed by dilution to 1 M urea with the addition of 200 mM EPPS, pH 8. Proteins were first digested with LysC (1:50; enzyme: protein) for 12 hours at room temperature. The LysC digestion was diluted down to 0.5 M Urea with 200 mM EPPS pH 8 and then digested with trypsin (1:50; enzyme:protein) for 6 hours at 37° C. Tandem mass tag (TMT) reagents (Thermo Fisher Scientific) were dissolved in anhydrous acetonitrile (ACN) according to manufacturer instructions. […] The sample channels were combined at a 1:1:1:1:1:1:1:1:1:1:1 ratio, desalted using C18 solid phase extraction cartridges (Waters®) and analyzed by LC-MS for channel ratio comparison. Samples were then combined using the adjusted volumes determined in the channel ratio analysis and dried down in a speed vacuum. […]

Structure (SMILES): C=CCn1c(=O)c2cnc(Nc3ccc(N4CCN(CCCNc5cccc6c5C(=O)N(C5CCC(=O)NC5=O)C6=O)CC4)cc3)nc2n1-c1cccc(C(C)(C)O)n1 (stereo not drawn) [Compound 13, 4-((3-(4-(4-((2-allyl-1-(6-(2-hydroxypropan-2-yl)pyridin-2-yl)-3-oxo-2,3-dihydro-1H-pyrazolo[3,4-d]pyrimidin-6-yl)amino)phenyl)piperazin-1-yl)propyl)amino)-2-(2,6-dioxopiperidin-3-yl)isoindoline-1,3-dione]
- ZFP91 degradation by proteomics: low levels of ZFP91 degradation
- PLK1 downregulation by proteomics (2 hours): No downregulation of PLK1
- Wee1 abundance Log2FC (2 hours): −1.97

From US12318452B2, “Degraders of WEE1 kinase” (DANA-FARBER CANCER INSTITUTE, INC., priority 2018, dated 2025)
